Square brackets hold non-standard residues; d marks the D form. Peptide text beside a SMILES is read from it. * marks the point of attachment. Hydrocinnamoyl = O=C(CCc1ccccc1)*; Tic = O=C(O)[C@@H]1Cc2ccccc2CN1; NMeL = CN[C@@H](CC(C)C)C(=O)O
Tests used:
[1] = Plasma stability, mouse plasma; format: in vitro ADME; settings: 37° C., 0-4 hours, LC-MS/MS, "Very long" = no significant degradation found in the test (4 hours)
Experimental: (§1) 1. Preparation of 50 mM Phosphate Buffer (50 mM Sodium Phosphate and 70 mM NaCl):
(§2) 5.750 g of Na2HPO4, 1.141 g of NaH2PO4 and 4.095 g of NaCl (Shanghai Titan) were weighed and dissolved in 1000 mL of ultrapure water and the pH was adjusted to 7.4. The prepared phosphate buffer was stored in the refrigerator at 4° C., valid for one week.
(§3) 2. Preparation of Compound Stock Solution:
(§4) 1) 5 mg/mL test compound: 5 mg of compound was weighed and dissolved in 1 mL of DMSO.
(§5) 2) 20 mM control: 2.728 mg of nococaine was dissolved in 0.5 mL of DMSO. 3.878 mg of fenfluramide was dissolved in 0.5 mL of DMSO (Amresco).
(§6) 3. Preparation of Experimental Plasma:
(§7) The frozen plasma (human: Shanghai ChemPartner, Rat, Mouse: Shanghai Xipuer-Beikai, Dog, Monkey: Suzhou Xishan Zhongke) was taken out from the −80° C. refrigerator, immediately placed in a 37° C. water bath, and thawn with gentle shaking. The thawed plasma was poured into a centrifuge tube, and centrifuged at 3000 rpm for 8 minutes. The supernatant was collected for the experiment. The pH of the plasma was measured with a pH meter (METTLER TOLEDO), and only the plasma with a pH between 7.4 and 8 was used for the experiment. The plasma was placed on an ice bath for later use.
4. Preparation of the Dosing Solution:
1) 125 μg/mL test compound solution: 5 μL of 5 mg/mL test compound (see step 2) was added to 195 μL DMSO; 500 μM control solution: 20 mM control stock solution (see step 2) was added to 195 μL DMSO.
2) 0.5% BSA phosphate buffer solution: 0.05 g of BSA was added to 10 mL of phosphate buffer (see step 1).
3) 5 μg/mL test compound dosing solution: 40 μL of 125 μg/mL test compound solution was added to 960 μL of 0.5% BSA phosphate buffer solution, shaken and mixed evenly, and the dosing solution was placed in a 37° C. water bath and preheated for 5 minutes.
20 μM control dosing solution: 40 μL of 500 μM control solution was added to 960 μL of 0.5% BSA phosphate buffer solution, shaken and mixed evenly, and the dosing solution was placed in a 37° C. water bath and preheated for 5 minutes.
5. 10 μL of 5 μg/mL test compound and 20 μM control solution were added to the wells of the 96-well plate set at different time points (0 minute, 1 hour, 2 hours and 4 hours). The number of duplicate samples was 3.
6. 500 μL of ACN (IS) containing 5% FA was added to the wells set at 0 minute. 90 μL of plasma was then added thereto, mixed evenly, sealed with the film and stored at 4° C. (the number of duplicates was 3).
7. 90 μL of plasma was added to the wells set at 1 hour, 2 hours and 4 hours (the number of replicates was 3), followed by timing (the final concentration of the test compound was 500 ng/mL, and that of the control was 2 μM).
9. All samples (0 minutes, 1 hour, 2 hours, and 4 hours) at different time points on the 96-well plate were placed on a shaker (IKA, MTS 2/4) and shaken at 600 rpm for 60 minutes. The samples were then centrifuged for 15 minutes on a centrifuge machine (Thermo Multifuge×3R) at 5594×g.
10. 150 μL of the supernatant was taken out from the centrifuged sample and sent to LC-MS/MS for analysis (conventional peptide LC-MS/MS analysis).

[2] = Plasma stability, rat plasma; format: in vitro ADME; settings: 37° C., time points 0 minute, 1, 2 and 4 hours, LC-MS/MS, read-out: Rat plasma (T1/2 (h)) (converted)
Experimental: as §1, §2, §3, §4, §5, §6, §7
4. Preparation of the Dosing Solution: […]

| half-life at 500 ng/mL ([1]; read-out: Mouse plasma (T1/2 (h)) (converted)) [h] | half-life at 500 ng/mL [2] [h] | Mouse plasma (T1/2 (h)) ([1]; 500 ng/mL) | SMILES |
| --- | --- | --- | --- |
| 35.4 | 11.7 | – | CC(C)C[C@H](NC(=O)[C@H](Cc1ccccc1)NC(=O)[C@H](N)Cc1ccc(O)cc1)C(=O)N1CCC[C@H]1C(=O)N[C@H](CO)C(=O)N[C@@H](CCC(N)=O)C(=O)N[C@@H](Cc1ccccc1)C(=O)N[C@H](C)C(=O)N1Cc2ccccc2C[C@H]1C(=O)N[C@@H](CO)C(=O)O [YW-3, (D-Tyr)-Phe-Leu-Pro-(D-Ser)-Gln-Phe-(D-Ala)-Tic-Ser, reference compound] (H-[dY]FLP[dS]QF[dA][Tic]S-OH) |
| – | > 71 | Very long | CC(C)C[C@@H](C(=O)N1CCC[C@H]1C(=O)N[C@H](CO)C(=O)N[C@@H](CCC(N)=O)C(=O)N[C@@H](Cc1ccccc1)C(=O)N[C@H](C)C(=O)N1Cc2ccccc2C[C@H]1C(=O)N[C@@H](CO)C(=O)O)N(C)C(=O)[C@H](Cc1ccccc1)NC(=O)[C@@H](Cc1ccc(O)cc1)NC(=O)CCc1ccccc1 [YW-111, 3-phenylpropanoyl-(D-Tyr)-Phe-(NMe-Leu)-Pro-(D-Ser)-Gln-Phe-(D-Ala)-Tic-Ser-OH] (Hydrocinnamoyl-[dY]F[NMeL]P[dS]QF[dA][Tic]S-OH) |
